Our source for the IC50 values is ChEMBL document CHEMBL1811863, “New 5-deoxyflavonoids and their inhibitory effects on protein tyrosine phosphatase 1B (PTP1B) activity” (Bioorg Med Chem, 2011).

As a reminder, the IC50 is the concentration that inhibits the measured activity by half.

This assay concerns the target T1, Tyrosine-protein phosphatase non-receptor type 1 (Homo sapiens, UniProt P18031).
T1 sequence (P18031 whole entry): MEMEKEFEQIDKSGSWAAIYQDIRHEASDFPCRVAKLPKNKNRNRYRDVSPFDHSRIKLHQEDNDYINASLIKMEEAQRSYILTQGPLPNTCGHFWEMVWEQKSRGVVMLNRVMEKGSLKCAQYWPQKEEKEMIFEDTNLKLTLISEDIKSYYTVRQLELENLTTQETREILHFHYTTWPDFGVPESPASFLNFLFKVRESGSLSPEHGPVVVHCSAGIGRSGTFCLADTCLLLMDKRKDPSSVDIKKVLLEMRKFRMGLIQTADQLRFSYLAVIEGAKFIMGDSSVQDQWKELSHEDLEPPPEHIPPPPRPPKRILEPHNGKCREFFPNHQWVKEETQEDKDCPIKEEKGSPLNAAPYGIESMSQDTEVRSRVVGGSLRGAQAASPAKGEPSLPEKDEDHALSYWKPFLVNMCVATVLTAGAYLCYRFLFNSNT
The assay is described as follows: Inhibition of human recombinant PTP1B assessed as p-nitorphenol production after 30 mins.
With `CC1(C)Oc2ccc([C@@H]3CC(=O)c4ccc(O)cc4O3)cc2CC1O` (some centres not stated) [ERYTHRIBYSSIN I], the 50% inhibitory concentration (IC50) was above 100 µM.

Turning to `CC(C)=CCc1cc([C@@H]2CC(=O)c3ccc(O)cc3O2)cc2c1OC(C)(C)C(O)C2` (some centres not stated) [ERYTHRIBYSSIN G], the half-inhibitory concentration (IC50) came out at 35.8 µM.

Turning to `CC(C)=CCc1cc([C@@H]2CC(=O)c3ccc(O)cc3O2)ccc1O` [ABYSSINONE II], the IC50 was determined as 29.2 µM.

`COc1cc([C@@H]2CC(=O)c3ccc(O)cc3O2)ccc1O`: the IC50 is 98.1 µM.

Regarding `O=C1C[C@@H](c2ccc(O)cc2)Oc2cc(O)ccc21` [LIQUIRTIGENIN], the IC50 was above 100 µM.

`COc1cc(OC)c([C@H]2COc3cc(O)ccc3C2=O)cc1CC=C(C)C` [ERYTHRIBYSSIN E]: the IC50 was determined as 15.2 µM.

On to `CC(C)=CCc1cc([C@@H]2CC(=O)c3ccc(O)cc3O2)cc2c1OC(C)(C)C=C2` [ABYSSINONES III], for which the IC50 was 72.9 µM.

For `O=Cc1cc([C@@H]2CC(=O)c3ccc(O)cc3O2)ccc1O` [ERYTHRIBYSSIN K], the half-maximal inhibitory concentration (IC50) was above 100 µM.

`COc1cc(O)c([C@]2(O)COc3cc(O)ccc3C2=O)cc1CC=C(C)C` [ERYTHRIBYSSIN J]: the half-inhibitory concentration (IC50) was 14.9 µM.

As to `COc1ccc(C2CC(=O)c3ccc(O)cc3O2)cc1CC=C(C)C` (configuration not stated), the IC50 came to 16.5 µM.

Consider `COc1cc(O)c(C2COc3cc(O)ccc3C2=O)cc1CC=C(C)C` (configuration not stated) [PROSTRATOL C], for which the 50% inhibitory concentration (IC50) turned out to be 17.2 µM.

On to `CC(C)=CCc1cc([C@@H]2CC(=O)c3c(O)cc(O)cc3O2)cc(CC=C(C)C)c1O` [ABYSSINONE V], for which the half-inhibitory concentration (IC50) stood at 22.6 µM.
